# Experiments:
# p38α = molecular target: T1, p38α (Homo sapiens, UniProt Q16539); assay: In vitro enzyme assay, p38α; type: biochemical; conditions: read-out: IC50 against p38α
# T1 construct: c-myc (N); 6His (N); made in house; host or cells: E. coli (PET vectors)
# Method: The ability of compounds of the invention to inhibit the enzyme p38 kinase was assessed. Activity of test compounds against each of the p38α and p38β isoforms of the enzyme was determined. […]
# Test compounds were solubilised in DMSO and 10 μl of a 1:10 diluted sample in ‘Kinase Buffer’ was added to a well in a Microtiter plate. […] The precipitated protein was phosphorylated by p38 kinase and test compounds were assessed for their ability to inhibit this phosphorylation. The plates were filtered using a Canberra Packard Unifilter and washed with 2% TCA, dried overnight and counted on a Top Count scintillation counter.
# Test compounds were tested initially at a single dose and active compounds were retested to allow IC50 values to be determined.
# [1] = system: TNFα production in human whole blood; assay: Human Whole Blood test: inhibition of LPS-stimulated TNFα production; type: cell-based
# Method: The ability of the compounds of this invention to inhibit TNFα production was also assessed in a human whole blood assay. Human whole blood secretes TNFα when stimulated with LPS. This property of blood forms the basis of an assay which is used as a secondary test for compounds which profile as active in the PBMC test.
# Heparinised (10 units/ml) human blood was obtained from volunteers. 160 μl whole blood were added to 96 well round-bottom plates (Corning 25850). Compounds were solubilised and serially diluted in RPMI 1640 medium (Gibco) supplemented with 50 units/ml penicillin, 50 μg/ml streptomycin and 2 mM glutamine, as detailed above. 20 μl of each test concentration was added to appropriate wells (triplicate cultures). 20 μl of RPMI 1640 medium supplemented with antibiotics and glutamine was added to control wells. Plates were incubated for 30 minutes at 37° C. (humidified incubator), prior to addition of 20 μl LPS (final concentration 10 μg/ml). RPMI 1640 medium was added to control wells. Six “LPS alone” and four “medium alone” controls were included on each plate. A known TNFα synthesis/secretion inhibitor was included in each test. Plates were incubated for 6 hours at 37° C. (humidified incubator). […] TNFα levels were measured by ELISA (see WO92/10190 and Current Protocols in Molecular Biology, vol 2 by Frederick M. Ausbel et al., John Wiley and Sons Inc.). […]
# T1 sequence (Q16539 whole entry): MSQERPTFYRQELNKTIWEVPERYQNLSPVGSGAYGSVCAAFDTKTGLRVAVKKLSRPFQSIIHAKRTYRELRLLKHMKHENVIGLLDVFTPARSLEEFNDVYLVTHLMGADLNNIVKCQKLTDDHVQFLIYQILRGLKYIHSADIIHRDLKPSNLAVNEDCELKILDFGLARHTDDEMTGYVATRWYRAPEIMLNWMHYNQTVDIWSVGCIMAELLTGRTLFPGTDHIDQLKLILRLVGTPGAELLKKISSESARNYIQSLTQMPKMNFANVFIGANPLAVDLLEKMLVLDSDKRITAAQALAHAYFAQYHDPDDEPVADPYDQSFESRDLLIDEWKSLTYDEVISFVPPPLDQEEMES
compound,measurement,setting,value
CN(C)CCCN(C)c1ccc(NC(=O)c2cc(NC(=O)c3ccnc(N4CCOCC4)c3)ccc2Cl)cn1 [N-{6-[N-(3-dimethylaminopropyl)-N-methylamino]pyrid-3-yl}-2-chloro-5-(2-morpholinopyrid-4-ylcarbonylamino)benzamide],IC50,p38α,~50 nM
same,IC50,[1],~5000 nM

# Source: patent US6794380B2, “Amide derivatives” (AstraZeneca AB, priority 1999, dated 2004)
